Molecular target: T1, human MASP2 (Homo sapiens, UniProt O00187)
T1 construct: Recombinant human MASP2 (298–686 aa) fused with both the N-terminal IgG signal peptide; IgG signal peptide (N); His tag (C); made in house; host or cells: Expi293 cells
Assay: Human MASP2 enzyme assay
Format: biochemical
Settings: supplementary csv
Protocol: Recombinant human MASP2 (298–686 aa) fused with both the N-terminal IgG signal peptide and the C-terminal His tag was expressed in Expi293 cells and purified. The assay was performed in a 384-well black plate in a total volume of 6 μL of the assay buffer 1. After 20 nL of compound solution was added to the plate, 3 μL of substrate solution containing a 20 μmol/L Z-Gly-Arg-SBzl peptide and 20 μmol/L BES-Thio (FUJIFILM Wako, Osaka, Japan) was added to the plate. Then, 0.6 nmol/L human MASP2 was added to the plate and incubated at room temperature for 60 min. The fluorescence at an excitation wavelength of 485 nm and an emission wavelength of 535 nm was detected using an EnVision multilabel plate reader.

T1 sequence (O00187 298-686): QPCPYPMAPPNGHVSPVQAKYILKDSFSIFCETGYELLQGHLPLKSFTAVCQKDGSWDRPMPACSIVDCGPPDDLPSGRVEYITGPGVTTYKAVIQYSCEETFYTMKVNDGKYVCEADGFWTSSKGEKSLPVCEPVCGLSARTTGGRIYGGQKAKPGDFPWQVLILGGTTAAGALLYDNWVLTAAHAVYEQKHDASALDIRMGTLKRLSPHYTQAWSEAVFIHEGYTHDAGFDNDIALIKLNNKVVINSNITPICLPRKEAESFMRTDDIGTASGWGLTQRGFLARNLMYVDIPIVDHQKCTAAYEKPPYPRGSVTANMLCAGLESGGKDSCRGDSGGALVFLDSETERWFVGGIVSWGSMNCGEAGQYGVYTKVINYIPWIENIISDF

- IC50: > 30 µM
Structure (SMILES): Cc1cc([C@H]2CN(c3cc(F)c4c(N)nncc4c3)CCN2c2cccc(F)c2)no1 [Compound (R)-8, 8-Fluoro-6-[(3R)-4-(3-fluorophenyl)-3-(5-methyl-1,2-oxazol-3-yl)piperazin-1-yl]phthalazin-1-amine]
